Measured values from US20260262643A1, “HERBICIDAL BENZOXAZINES” (FMC CORPORATION, priority 2022, published 2026).

Tests used:
kochia [1] = assay: Test C preemergence; format: in vivo, Bassia scoparia; settings: preemergence, 0 to 100 scale (0 no effect, 100 complete control)
How it was run: (§1)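 Soil-applied (pre) and foliar (post, 1–2 leaf, 2–10 cm) sprays; surfactant-containing non-phytotoxic solvent vehicle; loam/sand substrate. Readout: visual % control at 10 d, greenhouse, versus untreated.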

ragweed [2] = assay: Test C preemergence; format: in vivo, Ambrosia artemisiifolia; settings: preemergence, 0 to 100 scale (0 no effect, 100 complete control)
How it was run: as §1

ducksalad = assay: Test D flooded paddy test; format: in vivo, Heteranthera limosa; settings: 250 g ai/ha, applied to paddy water, visual rating after 13 to 14 days, scale 0 to 100 (0 no effect, 100 complete control)
How it was run: (§2)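 Rating scale 0–100 (0 no effect, 100 complete control), visual, versus controls. Readout at 13–14 days after in-water application to 2-leaf plants in pots flooded 3 cm deep.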

ryegrass, Italian [3] = assay: Test C postemergence; format: in vivo, Lolium multiflorum; settings: 10 days, 0 to 100 scale (0 no effect, 100 complete control)
How it was run: as §1

galium = assay: Test C postemergence; format: in vivo, Galium aparine; settings: 10 days, 0 to 100 scale (0 no effect, 100 complete control)
How it was run: as §1

rice = assay: Test D flooded paddy test; format: in vivo, Oryza sativa; settings: 250 g ai/ha, applied to paddy water, visual rating after 13 to 14 days, scale 0 to 100 (0 no effect, 100 complete control)
How it was run: as §2

wheat [4] = assay: Test C postemergence; format: in vivo, Triticum aestivum; settings: 10 days, 0 to 100 scale (0 no effect, 100 complete control)
How it was run: as §1

green foxtail [5] = assay: Test C preemergence; format: in vivo, Setaria viridis; settings: preemergence, 0 to 100 scale (0 no effect, 100 complete control)
How it was run: as §1

corn [6] = assay: Test C preemergence; format: in vivo, Zea mays; settings: preemergence, 0 to 100 scale (0 no effect, 100 complete control)
How it was run: as §1

soybean [7] = assay: Test C preemergence; format: in vivo, Glycine max; settings: preemergence, 0 to 100 scale (0 no effect, 100 complete control)
How it was run: as §1

oat, wild [8] = assay: Test C preemergence; format: in vivo, Avena fatua; settings: preemergence, 0 to 100 scale (0 no effect, 100 complete control)
How it was run: as §1

kochia [9] = assay: Test C postemergence; format: in vivo, Bassia scoparia; settings: 10 days, 0 to 100 scale (0 no effect, 100 complete control)
How it was run: as §1

pigweed, palmer [10] = assay: Test C preemergence; format: in vivo, Amaranthus palmeri; settings: preemergence, 0 to 100 scale (0 no effect, 100 complete control)
How it was run: as §1

horseweed = assay: Test C postemergence; format: in vivo, Erigeron canadensis; settings: 10 days, 0 to 100 scale (0 no effect, 100 complete control)
How it was run: as §1

barnyardgrass [11] = assay: Test D flooded paddy test; format: in vivo, Echinochloa crus-galli; settings: 250 g ai/ha, applied to paddy water, visual rating after 13 to 14 days, scale 0 to 100 (0 no effect, 100 complete control)
How it was run: as §2

oat, wild [12] = assay: Test C postemergence; format: in vivo, Avena fatua; settings: 10 days, 0 to 100 scale (0 no effect, 100 complete control)
How it was run: as §1

blackgrass [13] = assay: Test C preemergence; format: in vivo, Alopecurus myosuroides; settings: preemergence, 0 to 100 scale (0 no effect, 100 complete control)
How it was run: as §1

sedge, umbrella = assay: Test D flooded paddy test; format: in vivo, Cyperus difformis; settings: 250 g ai/ha, applied to paddy water, visual rating after 13 to 14 days, scale 0 to 100 (0 no effect, 100 complete control)
How it was run: as §2

barnyardgrass [14] = assay: Test C preemergence; format: in vivo, Echinochloa crusgalli; settings: preemergence, 0 to 100 scale (0 no effect, 100 complete control)
How it was run: as §1

green foxtail [15] = assay: Test C postemergence; format: in vivo, Setaria viridis; settings: 10 days, 0 to 100 scale (0 no effect, 100 complete control)
How it was run: as §1

ragweed [16] = assay: Test C postemergence; format: in vivo, Ambrosia artemisiifolia; settings: 10 days, 0 to 100 scale (0 no effect, 100 complete control)
How it was run: as §1

wheat [17] = assay: Test C preemergence; format: in vivo, Triticum aestivum; settings: preemergence, 0 to 100 scale (0 no effect, 100 complete control)
How it was run: as §1

blackgrass [18] = assay: Test C postemergence; format: in vivo, Alopecurus myosuroides; settings: 10 days, 0 to 100 scale (0 no effect, 100 complete control)
How it was run: as §1

pigweed, palmer [19] = assay: Test C postemergence; format: in vivo, Amaranthus palmeri; settings: 10 days, 0 to 100 scale (0 no effect, 100 complete control)
How it was run: as §1

corn [20] = assay: Test C postemergence; format: in vivo, Zea mays; settings: 10 days, 0 to 100 scale (0 no effect, 100 complete control)
How it was run: as §1

ryegrass, Italian [21] = assay: Test C preemergence; format: in vivo, Lolium multiflorum; settings: preemergence, 0 to 100 scale (0 no effect, 100 complete control)
How it was run: as §1

barnyardgrass [22] = assay: Test C postemergence; format: in vivo, Echinochloa crusgalli; settings: 10 days, 0 to 100 scale (0 no effect, 100 complete control)
How it was run: as §1

soybean [23] = assay: Test C postemergence; format: in vivo, Glycine max; settings: 10 days, 0 to 100 scale (0 no effect, 100 complete control)
How it was run: as §1

Structure (SMILES): COC[C@H]1CN(C(=O)c2cc(-n3cnc(C(C)C)n3)ccc2C)c2cccc(Cl)c2O1 [Compound 313]
- Kochia plant response rating (kochia [1]; 500 g ai/ha): 100
- Kochia plant response rating (kochia [1]; Test C, 125 g ai/ha): 80
- Ragweed plant response rating (ragweed [2]; 500 g ai/ha): 70
- Ragweed plant response rating (ragweed [2]; Test C, 125 g ai/ha): 0
- Plant response rating, Ducksalad (Flood) (ducksalad): 65
- Plant response rating, Ryegrass, Italian (ryegrass, Italian [3]; 500 g ai/ha, postemergence): 90
- Plant response rating, Ryegrass, Italian (ryegrass, Italian [3]; Postemergence, 125 g ai/ha): 80
- Plant response rating, Galium (galium; 500 g ai/ha, postemergence): 100
- Plant response rating, Galium (galium; Postemergence, 125 g ai/ha): 100
- Plant response rating, Rice (Flood) (rice): 20
- Plant response rating, Wheat (wheat [4]; 500 g ai/ha, postemergence): 50
- Plant response rating, Wheat (wheat [4]; Postemergence, 125 g ai/ha): 30
- Foxtail, Green plant response rating (green foxtail [5]; 500 g ai/ha): 100
- Foxtail, Green plant response rating (green foxtail [5]; Test C, 125 g ai/ha): 100
- Corn plant response rating (corn [6]; 500 g ai/ha): 0
- Corn plant response rating (corn [6]; Test C, 125 g ai/ha): 0
- Soybean plant response rating (soybean [7]; 500 g ai/ha): 100
- Soybean plant response rating (soybean [7]; Test C, 125 g ai/ha): 40
- Oat, Wild plant response rating (oat, wild [8]; 500 g ai/ha): 90
- Oat, Wild plant response rating (oat, wild [8]; Test C, 125 g ai/ha): 90
- Plant response rating, Kochia (kochia [9]; 500 g ai/ha, postemergence): 90
- Plant response rating, Kochia (kochia [9]; Postemergence, 125 g ai/ha): 90
- Pigweed, Palmer plant response rating (pigweed, palmer [10]; 500 g ai/ha): 100
- Pigweed, Palmer plant response rating (pigweed, palmer [10]; Test C, 125 g ai/ha): 100
- Plant response rating, Horseweed (horseweed; 500 g ai/ha, postemergence): 90
- Plant response rating, Horseweed (horseweed; Postemergence, 125 g ai/ha): 90
- Plant response rating, Barnyardgrass (Flood) (barnyardgrass [11]): 35
- Plant response rating, Oat, Wild (oat, wild [12]; 500 g ai/ha, postemergence): 60
- Plant response rating, Oat, Wild (oat, wild [12]; Postemergence, 125 g ai/ha): 20
- Blackgrass plant response rating (blackgrass [13]; 500 g ai/ha): 60
- Blackgrass plant response rating (blackgrass [13]; Test C, 125 g ai/ha): 50
- Plant response rating, Sedge, Umbrella (Flood) (sedge, umbrella): 98
- Barnyardgrass plant response rating (barnyardgrass [14]; 500 g ai/ha): 100
- Barnyardgrass plant response rating (barnyardgrass [14]; Test C, 125 g ai/ha): 80
- Plant response rating, Foxtail, Green (green foxtail [15]; 500 g ai/ha, postemergence): 90
- Plant response rating, Foxtail, Green (green foxtail [15]; Postemergence, 125 g ai/ha): 40
- Plant response rating, Ragweed (ragweed [16]; 500 g ai/ha, postemergence): 90
- Plant response rating, Ragweed (ragweed [16]; Postemergence, 125 g ai/ha): 60
- Wheat plant response rating (wheat [17]; 500 g ai/ha): 90
- Wheat plant response rating (wheat [17]; Test C, 125 g ai/ha): 20
- Plant response rating, Blackgrass (blackgrass [18]; 500 g ai/ha, postemergence): 100
- Plant response rating, Blackgrass (blackgrass [18]; Postemergence, 125 g ai/ha): 70
- Plant response rating, Pigweed, Palmer (pigweed, palmer [19]; 500 g ai/ha, postemergence): 100
- Plant response rating, Pigweed, Palmer (pigweed, palmer [19]; Postemergence, 125 g ai/ha): 80
- Plant response rating, Corn (corn [20]; 500 g ai/ha, postemergence): 90
- Plant response rating, Corn (corn [20]; Postemergence, 125 g ai/ha): 80
- Ryegrass, Italian plant response rating (ryegrass, Italian [21]; 500 g ai/ha): 100
- Ryegrass, Italian plant response rating (ryegrass, Italian [21]; Test C, 125 g ai/ha): 80
- Plant response rating, Barnyardgrass (barnyardgrass [22]; 500 g ai/ha, postemergence): 70
- Plant response rating, Barnyardgrass (barnyardgrass [22]; Postemergence, 125 g ai/ha): 40
- Plant response rating, Soybean (soybean [23]; 500 g ai/ha, postemergence): 100
- Plant response rating, Soybean (soybean [23]; Postemergence, 125 g ai/ha): 100
